Experimental data as given in BindingDB's records for doi:10.1016/j.bmcl.2018.11.028 (Kumamoto University, 2019).
pIC50: −log10 of the molar value.

Assays:
[1] = Inhibition of 20s constitutive proteasome beta1 caspase-like activity in human erythrocytes using […] as substrate preincubated for 10 mins followed by substrate addition and measured after 6 hrs by fluorescence assay
[2] = Inhibition of 20s constitutive proteasome beta2 trypsin-like activity in human erythrocytes using Boc-Leu-Arg-Arg-MCA as substrate preincubated for 10 mins followed by substrate addition and measured after 6 hrs by fluorescence assay

SMILES	pIC50 [1]	pIC50 [2]
C1=C\CCc2cc3c[n+](c2)CCCC/C=C\CC[C@@H]2CN(CCCC/1)CC[C@@H]32	5.33	–
C1=C2CN3CCCC/C=C\CC[C@@H]4CN(CCCC/C=C\CC[C@H]1C3)CC[C@@H]24	6.32	5.20
